Reference: patent publication US12703698B2, “Inhibitors of interleukin-1 receptor-associated kinases 1 and 4” (The University of Rochester, priority 2020, dated 2026)

What was measured:
THP-1 cells = assay: Colony formation of THP-1 cells in vitro; assay type: cell-based, human; details: FIGS. 4A-4C
Source text: FIGS. 4A, 4B and 4C show the effect of MCC950 (reference), UR241-1, and UR241-2 on the colony formation potential of THP-1 cells in vitro.

MDS-L cells = assay: Colony formation of MDS-L cells in vitro; assay type: cell-based; details: for colony formation of MDS-L cells: FIGS. 7A-7C; for colony formation potential of MDS-L cells: FIGS. 6A-6B
Source text: FIGS. 6A and 6B show the effect of UR241-1 and UR241-2 on the colony formation potential of MDS-L cells in vitro.

[1] = tested on: IL1b signaling events in THP-1 cells; assay: Western blot of IL1b signaling events in THP-1 cells; assay type: cell-based, human; details: THP-1 cells at 10 and 30 minutes; hIL-1β 10 ng/mL, UR241-2 4 μM, WB 30 μg/lane; FIG. 1E
Method: Whole cell lysates of THP1 treated with vehicle, hIL-1B (10 ng/mL), UR241-1 (10 μM) and UR241-2 (4 μM) for 10 minutes and 30 minutes. 30 μg proteins were electrophoresed and probed with phospho-/native p65, phospho-p38, pAKT, and GAPDH.

murine MLL-AF9 leukemia = assay: Colony forming activity in methylcellulose culture, MLL-AF9 leukemia; assay type: cell-based

Structure (SMILES) | colony formation potential of THP-1 cells (THP-1 cells) | colony formation of MDS-L cells (MDS-L cells) | colony formation potential of MDS-L cells (MDS-L cells) | inhibition of IL1b signaling events [1] | inhibition of colony forming activity (murine MLL-AF9 leukemia; UR241-2 4 uM with MCC950 100 nM, FIG. 1F) | inhibition of colony forming activity (murine MLL-AF9 leukemia; UR241-2 4 uM without MCC950, FIG. 1F)
CC(C)(O)c1coc(S(=O)(=O)NC(=O)Nc2c3c(cc4c2CCC4)CCC3)c1 [MCC950, reference compound] | suppressed the colonies formed by THP-1 cells dose-dependently | inhibited colony formation of MDS-L cells in vitro, dose-dependently |  |  |  | 
CC[C@@H]1[C@H](F)C(=O)N[C@@H]1COc1nccc2cc(C(N)=O)c(OC)cc12 [PF06650833, reference compound] |  | inhibited colony formation of MDS-L cells in vitro, dose-dependently |  |  |  | 
COc1cc(N2CCS(=O)(=O)CC2)ccc1NC(=O)c1cccc(-c2cc[nH]n2)c1 [UR241-1] | suppressed the colonies formed by THP-1 cells dose-dependently |  | suppressed the colonies formed by MDS-L cells dose dependently |  |  | 
COc1cc(N2CCS(=O)(=O)CC2)ccc1NC(=O)c1cccc(-c2cc[nH]n2)n1 [UR241-2] | suppressed the colonies formed by THP-1 cells dose-dependently | inhibited colony formation of MDS-L cells in vitro, dose-dependently | suppressed the colonies formed by MDS-L cells dose dependently | inhibition | inhibition of colony forming activity | inhibition of colony forming activity
